Series [1] can be described thus: Intrinsic clearance (Cli), mouse liver microsomes. It is filed as in vitro ADME. Particulars: 0.5 µM, scaling factor 48 mg microsomal protein per g liver. As to the method:
Test compound (0.5 µM) was incubated with female CD1 mouse, male rat Han Wistar and pooled human liver microsomes (Xenotech^TM; 0.5 mg/mL 50 mM potassium phosphate buffer, pH7.4) and the reaction started with addition of excess NADPH (8 mg/mL 50 mM potassium phosphate buffer, pH7.4). Immediately, at time zero, then at 3, 6, 9, 15 and 30 min an aliquot (50 µL) of the incubation mixture was removed and mixed with acetonitrile (100 uL) to stop the reaction. An internal standard was added to all samples, the samples centrifuged to sediment precipitated protein and the plates then sealed prior to UPLC-MSMS analysis (Xevo TQ-S Micro, Waters^TM). XLfit (IDBS, UK) was used to calculate the exponential decay and consequently the rate constant (k) from the ratio of peak area of test compound to internal standard at each timepoint. The rate of intrinsic clearance (CLi) of each test compound was then calculated using the following calculation:1 CLi(mL/min/gliver)=kxVxMicrosomalproteinyield Where V (mL/mg protein) is the incubation volume/mg protein added and microsomal protein yield is taken as 48 mg, 46 mg and 40 mg protein/g liver for mouse, rat and human, respectively. Verapamil (0.5 µM) was used as a positive control to confirm acceptable assay performance.

In series [2] the target is T1, GSK3β (Homo sapiens, UniProt P49841).
T1 construct: PROTAC-mediated degradation of untagged, endogenous GSK3β in HEK293 cells; host or cells: HEK293
Put plainly: Immunoblot degradation of endogenous GSK3β in HEK293 cells. Type of series: cell-based. Particulars: 10 nM; for endogenous GSK3β degradation: 2 h, HEK293. As to the method: HEK293, HAP1, HAP1 CRBN KO and SH-SY5Y cells were plated in either 6 cm plates or 6-well plates at varying densities (0.5–0.7 × 10^6 cells per plate or wells), and MEF cells were plated in 10 cm plates (1–1.2 × 10^6 cells per plate) depending on experimental set up in respective culturing condition as described above. Stock solutions of compounds were prepared as 10 mM in DMSO (Sigma–Aldrich). Working dilutions were made up fresh in DMSO and culturing media or differentiation media was refreshed prior to any compound treatments. For mode of action studies, cells were pre-treated with inhibitors for 2 h: 1 µM MG132 (Merck, 474790-5 mg), 1 µM MLN4924 (Merck, 5054770001) or 1 µM GSK3 inhibitor (compound 29), before treating with PROTACs for 2, 4 or 24 h as indicated in figure legends. Cells were washed twice with ice-cold PBS (Gibco), harvested in PBS and pelleted, cells were resuspended in RIPA buffer supplemented with complete EDTA-free protease inhibitor cocktail (Roche,11873580001, 1/10 mL) and phosSTOP (Roche, 04906845001, 1 tablet/10 mL) for 20 min lysis on ice then cleared via centrifugation at 16,000 × g, 4 °C for 20 min. SH-SY5Y cells were lysed in 500 µL ice-cold lysis buffer (25 mM Tris-HCl (pH 7.4), 50 mM NaF, 100 mM NaCl, 1 mM EDTA, 4 mM EGTA, 1% (v/v) Triton-X-100, 0.09% (w/v) sucrose, 10 mM sodium pyrophosphate, 10 mM sodium vanodate, 0.1% (v/v) β-mercaptoethanol, supplemented with complete mini protease inhibitor tablet (Sigma; 1 tablet/ 10 mL buffer)). Lysates were flash frozen, thawed and centrifugated at 16,000 × g, 4 °C for 20 min. Following clearance of lysates, protein concentrations were determined by the BCA assay (Fisher Scientific, 23225) or Bradford assay (Bio-rad). Five to thirty micrograms of protein from lysates were prepared in 4×LDS buffer (Thermo Fisher) and 50 mM dithiothreitol (DTT) denaturated at 95 °C for 5 min. […]
(In western blotting, separated proteins are transferred to a membrane and probed.)

A value given as a limit tells only on which side of the number the result lay.

T1 sequence (P49841 whole entry): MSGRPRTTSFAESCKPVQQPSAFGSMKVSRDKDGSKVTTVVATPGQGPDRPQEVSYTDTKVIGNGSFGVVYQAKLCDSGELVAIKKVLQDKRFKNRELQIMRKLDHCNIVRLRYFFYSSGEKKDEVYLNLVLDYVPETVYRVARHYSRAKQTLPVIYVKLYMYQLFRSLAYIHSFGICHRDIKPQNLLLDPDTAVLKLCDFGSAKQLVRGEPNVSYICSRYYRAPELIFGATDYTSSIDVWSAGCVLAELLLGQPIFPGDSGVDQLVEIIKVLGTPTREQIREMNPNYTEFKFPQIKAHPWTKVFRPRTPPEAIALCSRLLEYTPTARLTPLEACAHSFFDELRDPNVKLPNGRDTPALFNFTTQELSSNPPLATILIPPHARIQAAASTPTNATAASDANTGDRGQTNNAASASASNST

On to `O=C1CCC(NC(=O)c2ccc(CN3CCN(Cc4ccc(-c5cn(-c6ccc(-c7cn8nccc(C(=O)Nc9cnccc9N9CCOCC9)c8n7)cc6)nn5)nc4)CC3)cn2)C(=O)N1` (stereo not drawn) [compound 22], for which the “Scaled Microsomal Stability MuClint” value in series [1] is under 0.53 ml/min/g liver.
As for `Cn1nc(N2CCC(=O)NC2=O)c2ccc(CN3CCN(Cc4ccc(-c5cn(-c6ccc(-c7cn8nccc(C(=O)Nc9cnccc9N9CCOCC9)c8n7)cc6)nn5)nc4)CC3)cc21` [compound 24], the “impact on GSK3 levels” value in series [2] (30 min, HEK cells) is listed as “little impact”. For the same compound, in series [2], the “endogenous GSK3β degradation” value was “almost complete removal”. Further, the “Scaled Microsomal Stability MuClint” value in series [1] was 2.4 ml/min/g liver.
For the compound `Cn1nc(N2CCC(=O)NC2=O)c2ccc(CN3CCN(CCCc4cn(-c5ccc(-c6cn7nccc(C(=O)Nc8cnccc8N8CCOCC8)c7n6)cc5)nn4)CC3)cc21` [compound 26], the “endogenous GSK3β degradation” value in series [2] is “almost complete”. Also, the “Scaled Microsomal Stability MuClint” value in series [1] was 4.0 ml/min/g liver.

(Values after publication PMC12501029, “Discovery of a CNS active GSK3 degrader using orthogonally reactive linker screening” (Nature Communications, 2025).)
